SMILES strings stand for the structures. Entries after “also recorded” stand apart in the source; their conditions may differ.

In data set [1] the target is T1, USP1/UAF1 (Homo sapiens, UniProt O94782). Description: steady-state kinetics. It counts as biochemical.
For data set [2], the target named is USP1/UAF1 (Homo sapiens, UniProt O94782+Q8TAF3). As to the kind of experiment: steady-state kinetics. It counts as biochemical. The note with it: Lineweaver-Burk plots, K63-linked di-Ub substrate.
The test system of data set [3] is Ub-PCNA in HEK293T cells. Description: Western blot of Ub-PCNA level in cells. It counts as cell-based, human. In general terms: Immunoblotting shows a protein as a band on a membrane.
Data set [4] concerns Ub-FANCD2 in HEK293T cells. Description: Western blot of Ub-FANCD2 level in cells. The data set is classed as cell-based, human.
The test system of data set [5] is Ub-H2A in HEK293T cells. Description: histone H2A monoubiquitination in cells. It counts as cell-based, human. To be noted: in the presence or absence of cisplatin.
In data set [6] the target is USP1/UAF1 complex (Homo sapiens, UniProt O94782+Q8TAF3). As to the kind of experiment: native gel electrophoresis of USP1/UAF1 complex. The note with it: incubation with inhibitor up to 10 × IC50.
Data set [7] can be described thus: in vitro. The note with it: human.
Data set [8] has as its target T1, USP1/UAF1. Description: gel-based K63-linked diubiquitin cleavage assay, USP1/UAF1. It counts as biochemical. To be noted: IC50 USP1/UAF1, K63-linked diubiquitin substrate; NI = no significant inhibition at highest inhibitor concentration of 114 μM.

T1 sequence (O94782 whole entry): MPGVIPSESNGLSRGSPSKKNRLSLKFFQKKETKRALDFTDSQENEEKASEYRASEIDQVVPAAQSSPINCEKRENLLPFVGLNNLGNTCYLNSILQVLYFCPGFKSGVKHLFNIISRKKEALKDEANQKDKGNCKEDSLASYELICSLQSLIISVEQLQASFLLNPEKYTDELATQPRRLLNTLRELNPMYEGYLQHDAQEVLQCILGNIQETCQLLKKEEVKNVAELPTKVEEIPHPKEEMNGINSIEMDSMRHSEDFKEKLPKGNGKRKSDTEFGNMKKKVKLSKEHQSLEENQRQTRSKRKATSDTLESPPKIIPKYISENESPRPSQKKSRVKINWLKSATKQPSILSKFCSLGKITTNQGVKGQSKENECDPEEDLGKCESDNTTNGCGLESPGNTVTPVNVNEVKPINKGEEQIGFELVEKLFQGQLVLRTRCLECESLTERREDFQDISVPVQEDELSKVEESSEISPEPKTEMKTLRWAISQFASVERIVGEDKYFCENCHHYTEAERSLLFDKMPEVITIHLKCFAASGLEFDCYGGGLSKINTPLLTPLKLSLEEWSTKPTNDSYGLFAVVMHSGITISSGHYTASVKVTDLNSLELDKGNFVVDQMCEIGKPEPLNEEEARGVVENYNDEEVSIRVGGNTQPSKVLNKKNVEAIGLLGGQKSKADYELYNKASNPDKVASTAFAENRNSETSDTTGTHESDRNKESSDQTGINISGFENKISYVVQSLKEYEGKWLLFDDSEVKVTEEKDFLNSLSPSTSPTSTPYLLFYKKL
T1 sequence (Q8TAF3 whole entry, further chain): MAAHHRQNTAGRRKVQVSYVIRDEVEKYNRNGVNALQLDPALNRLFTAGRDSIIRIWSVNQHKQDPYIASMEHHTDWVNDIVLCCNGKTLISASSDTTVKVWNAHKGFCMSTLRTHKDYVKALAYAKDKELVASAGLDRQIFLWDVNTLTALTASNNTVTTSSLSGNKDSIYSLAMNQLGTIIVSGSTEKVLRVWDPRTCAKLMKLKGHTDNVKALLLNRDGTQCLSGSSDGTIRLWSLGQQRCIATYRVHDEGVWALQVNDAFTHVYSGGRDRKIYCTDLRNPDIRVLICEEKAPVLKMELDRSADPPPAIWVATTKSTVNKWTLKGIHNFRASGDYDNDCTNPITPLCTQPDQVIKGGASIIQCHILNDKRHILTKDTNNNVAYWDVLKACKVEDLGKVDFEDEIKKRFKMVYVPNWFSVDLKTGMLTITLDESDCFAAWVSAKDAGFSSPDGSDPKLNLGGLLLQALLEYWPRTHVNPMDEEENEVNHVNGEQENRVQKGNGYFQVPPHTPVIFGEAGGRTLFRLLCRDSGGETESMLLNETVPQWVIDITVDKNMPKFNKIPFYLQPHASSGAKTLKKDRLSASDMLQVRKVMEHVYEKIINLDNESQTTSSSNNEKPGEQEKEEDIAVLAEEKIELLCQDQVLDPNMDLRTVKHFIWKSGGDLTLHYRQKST
Sequence of USP1/UAF1 (Homo sapiens, UniProt O94782+Q8TAF3) (O94782 whole entry): as the sequence (O94782 whole entry) above
Sequence of USP1/UAF1 (Homo sapiens, UniProt O94782+Q8TAF3) (Q8TAF3 whole entry): as the sequence (Q8TAF3 whole entry, further chain) above
Sequence of USP1/UAF1 complex (O94782 whole entry): as the sequence (O94782 whole entry) above
Sequence of USP1/UAF1 complex (Q8TAF3 whole entry): as the sequence (Q8TAF3 whole entry, further chain) above

By Ki is commonly meant a dissociation constant, usually derived from enzyme kinetics or from competition with a known ligand. High values mean weaker binding, low ones tighter binding. The term EC50 denotes the concentration that produces a half-maximal response. Low values mean an effect from little substance, high ones a need for much substance. On to `O=c1[nH]c2ccccc2n1C1CCN(CCCC(c2ccc(F)cc2)c2ccc(F)cc2)CC1` [Pimozide, pimozide], for which the Ki in data set [1] came out at 500 nM. Also, in data set [2], the inhibition mechanism entry is “noncompetitively; also recorded: noncompetitive inhibition mechanism”. Further, the “monoubiquitination of PCNA, single agent” value in data set [3] is reported as “significant increase”. Besides, the “Ub-FANCD2 level, single agent” value in data set [4] is given as “increase in Ub-FANCD2 level”. The “effect on level of Ub-H2A” value in data set [5] is listed as “no effect”. In data set [6], the “dissociation of the USP1/UAF1 complex” value is on record as “no dissociation”. Besides, the EC50 at 48 h in data set [7] amounted to 21 µM.
As usually defined, the IC50 is the concentration that gives 50% inhibition. `OCCN1CCN(CCC=C2c3ccccc3Sc3ccc(C(F)(F)F)cc32)CC1` [Flupenthixol, flupenthixol] showed a half-maximal inhibitory concentration (IC50) in data set [8] of 7 ± 1 µM.
In data set [1], `CC(C)(Sc1ccc(CCN(CCCCC2CCCCC2)C(=O)NC2CCCCC2)cc1)C(=O)O` [GW7647] displayed an inhibitory constant (Ki) of 700 nM. For the same compound, the inhibition mechanism result in data set [2] is given as “noncompetitively; also recorded: noncompetitive inhibition mechanism”. For the same compound, the “monoubiquitination of PCNA, single agent” value in data set [3] is on record as “significant increase”. The “Ub-FANCD2 level, single agent” value in data set [4] is given as “increase in Ub-FANCD2 level”. Besides, in data set [5], the “effect on level of Ub-H2A” value is “no effect”. For the same compound, the “dissociation of the USP1/UAF1 complex” value in data set [6] was “no dissociation”. Besides, the midpoint of the response in data set [7], the EC50 at 48 h, lay at 26 µM.
Turning to `CN1CCN(CCCN2c3ccccc3Sc3ccc(C(F)(F)F)cc32)CC1` [Trifluoperazine, trifluoperazine], in data set [8], the IC50 was at most 8 µM.

The values are drawn from paper PMC3344384 (Chemistry & biology, 2011).
